Reference: patent US20260014118A1, “VITAMINS FOR USE IN IMPROVING GUT HEALTH” (DSM IP ASSETS B.V., priority 2022, published 2026)

Tested on: Bifidobacterium animalis ssp. lactis DSM 32269
Test: Short-term batch-fermentation (colonic incubation, M-SHIME colon model) with fecal inocula of six human donors; qPCR on groEL gene
Type: cell-based
Settings: 48 h colonic incubation; for levels of Bifidobacterium animalis ssp. lactis (DSM 32269 specific groEL gene copies) in the lumen environment, as compared to the respective control: average of six donors, co-supplemented with probiotic 1*10^9 CFU, vitamin B2 0.01667 g/L, vitamin C 0.333 g/L, vitamin D3 0.000025 g/L
Protocol: A short-term batch-fermentation experiment was carried out by ProDigest, consisting of a colonic incubation of a representative dose of a selected vitamin with a representative bacterial inoculum under simulated conditions for the proximal large intestine. In the current experiment, the bacterial inocula were derived from fresh fecal samples of six different healthy adult donors. Incubations were performed as described previously (Van den Abbeele, P.; Taminiau, B.; Pinheiro, I.; Duysburgh, C.; Jacobs, H.; Pijls, L.; Marzorati, M. Arabinoxylo-Oligosaccharides and Inulin Impact Inter-Individual Variation on Microbial Metabolism and Composition, Which Immunomodulates Human Cells. J. Agric. Food Chem. 2018, 66, 1121-1130). At the start of the short-term colonic incubation, fresh fecal material from six healthy human donors was collected and upon preparation of an anaerobic fecal slurry, this slurry was inoculated at 10 vol % in a SHIME nutritional medium containing basal nutrients containing 3.5 g/L K2HPO4, 10.9 g/L KH2PO4, 2 g/L NaHCO3(Chem-lab NV, Zedelgem, Belgium), 2 g/L yeast extract, 2 g/L peptone (Oxoid, Aalst, Belgium), 1 g/L mucin (Carl Roth, Karlsruhe, Germany), 0.5 g/L L-cysteine and 2 mL/L Tween80 (Sigma-Aldrich, Bornem, Belgium). All test ingredients (i.e., probiotic strain, vitamin B2, C, or D3) were also added to the SHIME medium. Furthermore, M-SHIME® technology was incorporated in the current experiment by adding mucin-covered microcosms (modeling the mucus of the colon) to the incubations as described previously (Van den Abbeele, P., et al. (2013). Butyrate-producing Clostridium cluster XIVa species specifically colonize mucins in an in vitro gut model. The ISME Journal 7 (5), 949-961). Incubations were performed for 48 h, at 37° C., under shaking (90 rpm) and anaerobic conditions.
In this study, the Bifidobacterium animalis ssp. lactis BB-12 equivalent Bifidobacterium animalis ssp. lactis DSM 32269 (Biocare Copenhagen) was added to the colon model containing the donor samples, alone or in combination with vitamin B2, C, or D (see Table 1). After 48 h of incubation, the abundance of the added strain was analyzed using primers that are specific for Bifidobacterium animalis ssp. lactis BB-12/Bifidobacterium animalis ssp. lactis DSM 32269. Experiments were performed in single repetition.
The Bifidobacterium animalis ssp. lactis BB-12 equivalent strain Bifidobacterium animalis ssp. lactis DSM 32269 was added to the SHIME medium as an overnight grown culture at a concentration of 1*10^9 CFU. The probiotic strain was either supplemented alone or in combination with vitamin B2, vitamin C or vitamin D3 (DSM). Vitamin B2, C, and D3 was added at a concentration of 0.01667 g/L, 0.333 g/L and 0.000025 g/L, respectively, which translates into a 10 mg, 200 mg, and […] dose, respectively, given that the colon volume is about 600 ml.
qPCR was performed on groEL gene (NCBI reference CP003497) to monitor the level of the supplemented Bifidobacterium animalis ssp. lactis DSM 32269 strain within the gut microbiome, as described previously (Junick et al. (2012), Quantification of Human Fecal Bifidobacterium Species by Use of Quantitative Real-Time PCR Analysis Targeting the groEL Gene). Samples were analyzed from the lumen and mucus environment following 48 h of incubation.
Statistical analysis was performed to investigate the average effect of the test products. For this purpose, the average over the six donors was calculated for each endpoint. […]

[1] = control = probiotic only, p<0.05

Row | SMILES | levels of Bifidobacterium animalis ssp. lactis (DSM 32269 specific groEL gene copies) in the lumen environment, as compared to the respective control [1] | levels of Bifidobacterium animalis ssp. lactis in the mucus environment, as compared to the respective control (mucus, vitamin B2 0.01667 g/L co-supplemented with probiotic, control = probiotic only, p<0.05) | copies of the Bifidobacterium animalis ssp. lactis DSM 32269 specific groEL gene in the mucus environment, relative to control (mucus, vitamin B2 0.01667 g/L co-supplemented with probiotic, versus probiotic only)
1 | Cc1cc2nc3c(=O)[nH]c(=O)nc-3n(C[C@H](O)[C@H](O)[C@H](O)CO)c2cc1C [vitamin B2, riboflavin] | significantly increased | significantly increased | around 6 times
2 | O=C1O[C@H]([C@@H](O)CO)C(O)=C1O [vitamin C, L-ascorbic acid] | significantly increased | – | –
3 | C=C1CC[C@H](O)C/C1=C/C=C1\CCC[C@]2(C)[C@@H]([C@H](C)CCCC(C)C)CC[C@@H]12 [vitamin D, cholecalciferol] | significantly increased | – | –
